Measured values: patent US9452986B2, “6-heteroaryloxy- or 6-aryloxy-quinoline-2-carboxamides and method of use” (AbbVie Inc., priority 2014, dated 2016)

What follows are compounds tested against recombinant human Nav1.7 (Homo sapiens (Human), UniProt Q15858) (assay: FRET-based membrane potential assay, recombinant human sodium channel Nav1.7). Conditions: HEK293 cells stably expressing recombinant human Nav1.7; veratridine + scorpion venom depolarization; read-out: FRET-Membrane Potential Nav1.7 IC50.
Type: cell-based
In short: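 Channel activation used veratridine at its EC80, set by a dilution curve each experiment, together with Leiurus scorpion venom, added 3 min after compound. Membrane-potential ratio signals from FLIPR Tetra in HEPES-buffered HBSS were fitted to a four-parameter Hill equation for percent inhibition and IC50.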

Chain of recombinant human Nav1.7 (Q15858 whole entry): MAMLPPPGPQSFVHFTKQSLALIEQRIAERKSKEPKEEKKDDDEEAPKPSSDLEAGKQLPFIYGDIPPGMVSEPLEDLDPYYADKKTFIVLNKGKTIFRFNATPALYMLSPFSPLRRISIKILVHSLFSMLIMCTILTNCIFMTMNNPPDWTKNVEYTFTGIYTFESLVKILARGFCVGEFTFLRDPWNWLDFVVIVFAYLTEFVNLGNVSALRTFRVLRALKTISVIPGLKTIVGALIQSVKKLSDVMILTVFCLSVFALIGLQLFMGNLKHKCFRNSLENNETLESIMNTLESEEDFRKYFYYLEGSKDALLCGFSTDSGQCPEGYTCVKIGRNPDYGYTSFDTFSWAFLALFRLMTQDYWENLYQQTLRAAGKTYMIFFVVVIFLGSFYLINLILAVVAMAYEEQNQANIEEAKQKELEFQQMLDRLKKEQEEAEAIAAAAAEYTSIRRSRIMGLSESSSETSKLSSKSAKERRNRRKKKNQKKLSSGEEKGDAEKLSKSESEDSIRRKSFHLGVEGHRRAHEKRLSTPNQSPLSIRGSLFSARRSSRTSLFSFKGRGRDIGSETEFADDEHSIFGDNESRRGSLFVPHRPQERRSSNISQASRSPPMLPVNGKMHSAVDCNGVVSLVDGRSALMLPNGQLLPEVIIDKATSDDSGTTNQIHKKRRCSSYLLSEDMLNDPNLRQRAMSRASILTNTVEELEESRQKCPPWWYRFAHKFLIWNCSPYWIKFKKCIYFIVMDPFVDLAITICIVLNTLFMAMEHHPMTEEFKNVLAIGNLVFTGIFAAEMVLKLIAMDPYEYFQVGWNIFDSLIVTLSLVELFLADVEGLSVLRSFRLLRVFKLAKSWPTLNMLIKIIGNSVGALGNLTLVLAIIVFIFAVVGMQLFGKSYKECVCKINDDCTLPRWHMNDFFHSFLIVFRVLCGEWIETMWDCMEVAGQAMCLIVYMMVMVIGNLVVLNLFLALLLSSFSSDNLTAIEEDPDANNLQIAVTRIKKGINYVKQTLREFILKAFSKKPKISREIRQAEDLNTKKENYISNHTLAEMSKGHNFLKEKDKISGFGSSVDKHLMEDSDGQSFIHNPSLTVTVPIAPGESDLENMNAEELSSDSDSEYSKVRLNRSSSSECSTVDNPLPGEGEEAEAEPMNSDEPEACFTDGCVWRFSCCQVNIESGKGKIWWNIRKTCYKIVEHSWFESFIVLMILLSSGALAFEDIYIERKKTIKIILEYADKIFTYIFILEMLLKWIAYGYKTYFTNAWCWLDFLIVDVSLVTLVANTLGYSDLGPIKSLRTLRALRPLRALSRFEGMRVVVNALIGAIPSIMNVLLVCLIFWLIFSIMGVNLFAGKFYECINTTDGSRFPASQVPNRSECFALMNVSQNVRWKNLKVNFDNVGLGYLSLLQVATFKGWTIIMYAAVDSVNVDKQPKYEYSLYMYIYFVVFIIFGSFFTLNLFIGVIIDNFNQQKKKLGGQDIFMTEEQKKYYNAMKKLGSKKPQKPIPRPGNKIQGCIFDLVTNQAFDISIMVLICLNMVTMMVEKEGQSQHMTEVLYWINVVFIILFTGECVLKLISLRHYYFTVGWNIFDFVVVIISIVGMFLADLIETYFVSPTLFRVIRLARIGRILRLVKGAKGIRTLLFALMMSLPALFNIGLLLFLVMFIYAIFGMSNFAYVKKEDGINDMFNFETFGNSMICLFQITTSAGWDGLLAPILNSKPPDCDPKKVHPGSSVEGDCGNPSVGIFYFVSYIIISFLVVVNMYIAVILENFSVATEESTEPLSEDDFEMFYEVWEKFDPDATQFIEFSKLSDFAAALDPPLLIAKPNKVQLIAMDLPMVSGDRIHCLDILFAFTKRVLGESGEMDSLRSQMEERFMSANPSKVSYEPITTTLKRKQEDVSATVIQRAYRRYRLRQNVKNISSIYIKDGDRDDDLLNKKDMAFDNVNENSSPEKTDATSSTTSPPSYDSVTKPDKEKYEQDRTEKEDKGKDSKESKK

Compared with `NC(=O)CNC(=O)c1ccc2cc(Oc3ccc(C(F)(F)F)cn3)ccc2n1` [Example 150, N-(2-amino-2-oxoethyl)-6-{[5-(trifluoromethyl)pyridin-2-yl]oxy}quinoline-2-carboxamide], `O=C(NCc1ccccn1)c1ccc2cc(Oc3ccc(C(F)(F)F)cn3)ccc2n1` [Example 151, N-(pyridin-2-ylmethyl)-6-{[5-(trifluoromethyl)pyridin-2-yl]oxy}quinoline-2-carboxamide] is 2.9-fold lower in IC50: 2.28 µM for the first, 0.792 µM for the second.

Compared with `O=C(NC1CCS(=O)(=O)C1)c1ccc2cc(Oc3ncc(C(F)(F)F)cc3Cl)ccc2n1` (centres unmarked) [Example 154, 6-{[3-chloro-5-(trifluoromethyl)pyridin-2-yl]oxy}-N-(1,1-dioxidotetrahydrothiophen-3-yl)quinoline-2-carboxamide], `O=C(NC1CCS(=O)(=O)C1)c1ccc2cc(Oc3ccc(C(F)(F)F)nn3)ccc2n1` (centres unmarked) [Example 168, N-(1,1-dioxidotetrahydrothiophen-3-yl)-6-{[6-(trifluoromethyl)pyridazin-3-yl]oxy}quinoline-2-carboxamide] is higher in IC50: 2.32 µM for the first, over 20 µM for the second.

Compared with `O=C(c1ccc2cc(Oc3ccc(C(F)(F)F)cn3)ccc2n1)N1CC2(CNC2)C1` [Example 157, 2,6-diazaspiro[3.3]hept-2-yl(6-{[5-(trifluoromethyl)pyridin-2-yl]oxy}quinolin-2-yl)methanone], `O=C(c1ccc2cc(Oc3ccc(C(F)(F)F)cn3)ccc2n1)N1C[C@H]2CNC[C@H]2C1` [Example 164, (3 aR,6aS)-hexahydropyrrolo[3,4-c]pyrrol-2(1H)-yl(6-{[5-(trifluoromethyl)pyridin-2-yl]oxy}quinolin-2-yl)methanone] is lower in IC50: over 20 µM for the first, 12.7 µM for the second. The second is the more potent here.

`N#Cc1ccc(Oc2ccc3nc(C(=O)NC4CCS(=O)(=O)C4)ccc3c2)nc1` (centres unmarked) [Example 158, 6-[(5-cyanopyridin-2-yl)oxy]-N-(1,1-dioxidotetrahydrothiophen-3-yl)quinoline-2-carboxamide] and `O=C(NC1CCS(=O)(=O)C1)c1ccc2cc(Oc3ccc(Cl)nn3)ccc2n1` (centres unmarked) [Example 165, 6-[(6-chloropyridazin-3-yl)oxy]-N-(1,1-dioxidotetrahydrothiophen-3-yl)quinoline-2-carboxamide] cannot be ordered by IC50: over 20 µM for the first, over 20 µM for the second.

`Cc1cc(C)nc(Oc2ccc3nc(C(=O)NC4CCS(=O)(=O)C4)ccc3c2)n1` (centres unmarked) [Example 162, 6-[(4,6-dimethylpyrimidin-2-yl)oxy]-N-(1,1-dioxidotetrahydrothiophen-3-yl)quinoline-2-carboxamide] and `Cc1ccnc(Oc2ccc3nc(C(=O)NC4CCS(=O)(=O)C4)ccc3c2)n1` (centres unmarked) [Example 163, N-(1,1-dioxidotetrahydrothiophen-3-yl)-6-[(4-methylpyrimidin-2-yl)oxy]quinoline-2-carboxamide] cannot be ordered by IC50: over 20 µM for the first, over 20 µM for the second.

`O=C1NC[C@@H]2CN(C(=O)c3ccc4cc(Oc5ccc(C(F)(F)F)cn5)ccc4n3)C[C@H]12` [Example 166, (3 aR,6aR)-5-[(6-{[5-(trifluoromethyl)pyridin-2-yl]oxy}quinolin-2-yl)carbonyl]hexahydropyrrolo[3,4-c]pyrrol-1(2H)-one] and `O=C1CN(C(=O)c2ccc3cc(Oc4ccc(C(F)(F)F)cn4)ccc3n2)CCN1` [Example 172, 4-[(6-{[5-(trifluoromethyl)pyridin-2-yl]oxy}quinolin-2-yl)carbonyl]piperazin-2-one] are within 1.5-fold of each other in IC50: 11.1 µM for the first, 10.5 µM for the second.

Compared with `O=C1NCCN2CCN(C(=O)c3ccc4cc(Oc5ccc(C(F)(F)F)cn5)ccc4n3)CC12` (centres unmarked) [Example 169, 8-[(6-{[5-(trifluoromethyl)pyridin-2-yl]oxy}quinolin-2-yl)carbonyl]hexahydro-2H-pyrazino[1,2-a]pyrazin-1(6H)-one], `O=C1NCC(=O)N2CCN(C(=O)c3ccc4cc(Oc5ccc(C(F)(F)F)cn5)ccc4n3)CC12` (centres unmarked) [Example 171, 8-[(6-{[5-(trifluoromethyl)pyridin-2-yl]oxy}quinolin-2-yl)carbonyl]tetrahydro-2H-pyrazino[1,2-a]pyrazine-1,4(3H,6H)-dione] is 2.2-fold lower in IC50: 17.2 µM for the first, 7.95 µM for the second. The second is the more potent here.

Compared with `O=C(c1ccc2cc(Oc3ccc(C(F)(F)F)cn3)ccc2n1)N1CCn2cnnc2C1` [Example 170, 5,6-dihydro[1,2,4]triazolo[4,3-a]pyrazin-7(8H)-yl(6-{[5-(trifluoromethyl)pyridin-2-yl]oxy}quinolin-2-yl)methanone], `O=C(c1ccc2cc(Oc3ccc(C(F)(F)F)cn3)ccc2n1)N1CCn2cncc2C1` [Example 173, 5,6-dihydroimidazo[1,5-a]pyrazin-7(8H)-yl(6-{[5-(trifluoromethyl)pyridin-2-yl]oxy}quinolin-2-yl)methanone] is 11-fold lower in IC50: 8.87 µM for the first, 0.833 µM for the second. The second is the more potent here.

`O=C(NCCN1CCCC1)c1ccc2cc(Oc3ccc(C(F)(F)F)cn3)ccc2n1` [Example 174, N-[2-(pyrrolidin-1-yl)ethyl]-6-{[5-(trifluoromethyl)pyridin-2-yl]oxy}quinoline-2-carboxamide] and `O=C(NCCN1CCCCC1)c1ccc2cc(Oc3ccc(C(F)(F)F)cn3)ccc2n1` [Example 175, N-[2-(piperidin-1-yl)ethyl]-6-{[5-(trifluoromethyl)pyridin-2-yl]oxy}quinoline-2-carboxamide] are within 1.5-fold of each other in IC50: 0.294 µM for the first, 0.206 µM for the second.

Compound `CC(C)S(=O)(=O)N1CCN(C(=O)c2ccc3cc(Oc4ccc(C(F)(F)F)cn4)ccc3n2)CC1` [Example 177, [4-(isopropylsulfonyl)piperazin-1-yl](6-{[5-(trifluoromethyl)pyridin-2-yl]oxy}quinolin-2-yl)methanone] has an IC50 of 2.68 µM.

Same assay, conditions: read-out: FRET-Membrane Potential Nav1.7 IC50

First: O=C(c1ccc2cc(Oc3cccc(C(F)(F)F)n3)ccc2n1)N1CCNCC1 [Example 153, piperazin-1-yl(6-{[6-(trifluoromethyl)pyridin-2-yl]oxy}quinolin-2-yl)methanone]
Second: CS(=O)(=O)N1CCN(C(=O)c2ccc3cc(Oc4ccc(C(F)(F)F)cn4)ccc3n2)CC1 [Example 176, [4-(methylsulfonyl)piperazin-1-yl](6-{[5-(trifluoromethyl)pyridin-2-yl]oxy}quinolin-2-yl)methanone]
The IC50 of the first is 2.7-fold lower: 3.3 µM for the first, 8.77 µM for the second. The first is the more potent here.

Compared with `O=C(NC1CCS(=O)(=O)C1)c1ccc2cc(Oc3ncc(C(F)(F)F)cn3)ccc2n1` (centres unmarked) [Example 155, N-(1,1-dioxidotetrahydrothiophen-3-yl)-6-{[5-(trifluoromethyl)pyrimidin-2-yl]oxy}quinoline-2-carboxamide], `Cc1cnc(Oc2ccc3nc(C(=O)NC4CCS(=O)(=O)C4)ccc3c2)nc1` (centres unmarked) [Example 161, N-(1,1-dioxidotetrahydrothiophen-3-yl)-6-[(5-methylpyrimidin-2-yl)oxy]quinoline-2-carboxamide] is higher in IC50: 5.38 µM for the first, over 20 µM for the second.

Going from `O=C(c1ccc2cc(Oc3ccc(C(F)(F)F)cn3)ccc2n1)N1CC2(COC2)C1` [Example 156, 2-oxa-6-azaspiro[3.3]hept-6-yl(6-{[5-(trifluoromethyl)pyridin-2-yl]oxy}quinolin-2-yl)methanone] to `N#Cc1ccc(Oc2ccc3nc(C(=O)N[C@H]4CCS(=O)(=O)C4)ccc3c2)cc1` [Example 159, 6-(4-cyanophenoxy)-N-[(3S)-1,1-dioxidotetrahydrothiophen-3-yl]quinoline-2-carboxamide], the IC50 falls from over 20 µM to 0.73 µM. The second is the more potent here.

Compound `N#Cc1ccc(Oc2ccc3nc(C(=O)N[C@@H]4CCS(=O)(=O)C4)ccc3c2)cc1` [Example 160, 6-(4-cyanophenoxy)-N-[(3R)-1,1-dioxidotetrahydrothiophen-3-yl]quinoline-2-carboxamide] has an IC50 of 0.71 µM.
